Legend:
Type in all cases: in vivo
Monocots [1] = test: Herbicidal activity, preemergence, monocot weeds (Table II); conditions: pre-emergence, 336 h, about 2 weeks, read-out: % control (percent of plants killed); for pest or weed control at 2241.7 g/ha: 2 lb./A.; for pest or weed control at 4483.4 g/ha: 4 lb./A.; for pest or weed control at 11208.5 g/ha: 10 lb./A.
Procedure: (§1) Using the procedure described below, diphenyl ethers were evaluated for control of the following weeds: […]
(§2) barnyardgrass (Echinochloa crusgalli) crabgrass (Digitaria spp.) nutsedge (Cyperus esculentus)
(§3) At 2 and 4 pounds per acre:
(§4) **Bermudagrass (Cynodon dactylon)
(§5) *downy brome (Bromus tectorum) foxtail (Setaria faberii)
(§6) Johnsongrass (Sorghum halepense) […]
(§7) quackgrass (Agropyron repens)
(§8) *ryegrass (Lolium perenne)
(§9) *yellow millet (Panicum miliaceum)
(§10) The following test procedure is employed. Seeds of selected crops and weeds are planted in soil in flats. For preemergence tests, the flats are treated with the test compound immediately after the planting. For postemergence tests, the seeds are allowed to germinate, and after 2 weeks the flats are treated with the test compound. The compound to be evaluated is dissolved in acetone, diluted with water, and sprayed over the flats using a carrier volume equivalent to 50 gallons per acre at the rate of application (pounds per acre, lb/A.) specified in the tables. About 2 weeks after the application of the test compound, the state of growth of the plants is observed and the phytotoxic effect of the compound is evaluated. Table II gives the average percent control achieved by the test compounds in terms of the percent of the plants which are killed by the compounds.

Dicots [2] = test: Herbicidal activity, preemergence, dicot weeds (Table II); conditions: pre-emergence, 336 h, about 2 weeks, read-out: % control (percent of plants killed); for pest or weed control at 2241.7 g/ha: 2 lb./A.; for pest or weed control at 4483.4 g/ha: 4 lb./A.; for pest or weed control at 11208.5 g/ha: 10 lb./A.
Procedure: as §1
(§11) bindweed (Convolvulus arvensis) curly dock (Remex crispus) velvetleaf (Abutilon theophrasti) wild mustard (Brassica haber)
(§12) At 2 and 4 pounds per acre: […]
(§13) cocklebur (Xanthium pensylvanicum)
(§14) **coffeeweed (Sesbania macrocarpa)
(§15) *curly dock (Rumex crispus)
(§16) *lambsquarters (Chenopodium album) morningglory (Ipomoea purpurea)
(§17) *pigweed (Amaranthus retroflexus)
(§18) **ragweed (Ambrosia artemisiifolia)
(§19) *smartweed (Polygonum pensylvanicum)
(§20) **tomato (Lycopersicon esculentum)
(§21) *wild carrot (Daucus carota)
(§22) *wild mustard (Brassica haber)
as §10

Monocots [3] = test: Herbicidal activity, postemergence, monocot weeds (Table II); conditions: post-emergence, 336 h, about 2 weeks, read-out: % control (percent of plants killed); for pest or weed control at 2241.7 g/ha: 2 lb./A.; for pest or weed control at 4483.4 g/ha: 4 lb./A.; for pest or weed control at 11208.5 g/ha: 10 lb./A.
Procedure: as §1, §2, §3, §4, §5, §6, §7, §8, §9, §10

Dicots [4] = test: Herbicidal activity, postemergence, dicot weeds (Table II); conditions: post-emergence, 336 h, about 2 weeks, read-out: % control (percent of plants killed); for pest or weed control at 2241.7 g/ha: 2 lb./A.; for pest or weed control at 4483.4 g/ha: 4 lb./A.; for pest or weed control at 11208.5 g/ha: 10 lb./A.
Procedure: as §1, §11, §12, §13, §14, §15, §16, §17, §18, §19, §20, §21, §22, §10

| SMILES | pest or weed control at 2241.7 g/ha (Monocots [1]) | pest or weed control at 4483.4 g/ha (Monocots [1]) | pest or weed control at 2241.7 g/ha (Dicots [2]) | pest or weed control at 4483.4 g/ha (Dicots [2]) | pest or weed control at 2241.7 g/ha (Monocots [3]) | pest or weed control at 4483.4 g/ha (Monocots [3]) | pest or weed control at 2241.7 g/ha (Dicots [4]) | pest or weed control at 4483.4 g/ha (Dicots [4]) | pest or weed control at 11208.5 g/ha (Monocots [1]) | pest or weed control at 11208.5 g/ha (Dicots [2]) | pest or weed control at 11208.5 g/ha (Monocots [3]) | pest or weed control at 11208.5 g/ha (Dicots [4]) |
| --- | --- | --- | --- | --- | --- | --- | --- | --- | --- | --- | --- | --- |
| CC(=O)C(C)Oc1cc(Oc2ccc(C(F)(F)F)cc2Cl)ccc1[N+](=O)[O-] (stereo not shown) [Example 32] | 81% | 86% | 81% | 100% | 100% | 86% | 100% | 100% | – | – | – | – |
| O=C(O)COc1cc(Oc2ccc(C(F)(F)F)cc2Cl)ccc1[N+](=O)[O-] [Example 23] | 55% | 90% | 87% | 64% | 71% | 82% | 100% | 100% | – | – | – | – |
| Nc1cc(Oc2ccc(C(F)(F)F)cc2Cl)ccc1[N+](=O)[O-] [Example 27] | 74% | 76% | 90% | 98% | 99% | 82% | 100% | 100% | – | – | – | – |
| CN(CCO)c1cc(Oc2ccc(C(F)(F)F)cc2Cl)ccc1[N+](=O)[O-] [Example 43] | 99% | 0% | 100% | 48% | 61% | 2% | 80% | 47% | – | – | – | – |
| CCSC(=O)Nc1cc(Oc2ccc(C(F)(F)F)cc2Cl)ccc1[N+](=O)[O-] [Example 45] | 68% | 13% | 77% | 58% | 53% | 17% | 78% | 88% | – | – | – | – |
| CCCN(CCC)c1cc(Oc2ccc(C(F)(F)F)cc2Cl)ccc1[N+](=O)[O-] [Example 41] | 84% | 60% | 62% | 96% | 56% | 71% | 94% | 95% | – | – | – | – |
| C=CCOc1cc(Oc2ccc(C(F)(F)F)cc2Cl)ccc1[N+](=O)[O-] [Example 12] | 72% | 86% | 93% | 96% | 99% | 77% | 100% | 100% | – | – | – | – |
| O=[N+]([O-])c1ccc(Oc2ccc(C(F)(F)F)cc2Cl)cc1NCCO [Example 22] | 63% | 72% | 77% | 98% | 70% | 60% | 100% | 99% | – | – | – | – |
| CCOc1cc(Oc2ccc(C(F)(F)F)cc2)ccc1[N+](=O)[O-] [Example 1] | – | 76% | – | 45% | – | 57% | – | 58% | 42% | 35% | 82% | 100% |
| CCOCCOc1cc(Oc2ccc(C(F)(F)F)cc2Cl)ccc1[N+](=O)[O-] [Example 16] | 67% | 86% | 75% | 94% | 82% | 77% | 94% | 96% | – | – | – | – |
| CNC(=O)Oc1cc(Oc2ccc(C(F)(F)F)cc2Cl)ccc1[N+](=O)[O-] [Example 33] | 79% | 53% | 74% | 99% | 65% | 32% | 100% | 98% | – | – | – | – |
| C#CCCOc1cc(Oc2ccc(C(F)(F)F)cc2Cl)ccc1[N+](=O)[O-] [Example 29] | 66% | 74% | 84% | 73% | 97% | 79% | 100% | 100% | – | – | – | – |
| CN(C)CCOc1cc(Oc2ccc(C(F)(F)F)cc2Cl)ccc1[N+](=O)[O-] [Example 17, 2-chloro-α,α,α-trifluoro-p-tolyl-3-(2-dimethylaminoethoxy)-4-nitrophenyl ether] | 20% | 51% | 31% | 84% | 39% | 45% | 98% | 89% | – | – | – | – |
| CC(=O)CCOc1cc(Oc2ccc(C(F)(F)F)cc2Cl)ccc1[N+](=O)[O-] [Example 31] | 68% | 74% | 69% | 99% | 68% | 61% | 100% | 100% | – | – | – | – |
| CCSC(=O)N(C(=O)SCC)c1cc(Oc2ccc(C(F)(F)F)cc2Cl)ccc1[N+](=O)[O-] [Example 46] | 34% | 0% | 87% | 20% | 0% | 0% | 4% | 30% | – | – | – | – |
| O=[N+]([O-])c1ccc(Oc2ccc(C(F)(F)F)cc2Cl)cc1OCC1CO1 (stereo not shown) [Example 38] | 62% | 47% | 68% | 86% | 51% | 43% | 58% | 98% | – | – | – | – |
| CCN(C(=O)NC)c1cc(Oc2ccc(C(F)(F)F)cc2Cl)ccc1[N+](=O)[O-] [Example 55, 2-Chloro-α,α,α-trifluoro-p-tolyl-3-(3-methyl-1-ethylureido)-4-nitrophenyl ether] | – | 91% | – | 73% | 31% | 69% | 96% | 95% | – | – | – | – |
| CCCOc1cc(Oc2ccc(C(F)(F)F)cc2Cl)ccc1[N+](=O)[O-] [Example 5] | – | 84% | – | 78% | – | 99% | – | 100% | 97% | 100% | 100% | 100% |
